The results in this text go back to ChEMBL document CHEMBL3991601, “The target landscape of clinical kinase drugs” (Science, 2017).

The Kd is a measure of binding affinity in units of concentration.

In test [1] the target is Calcium/calmodulin-dependent protein kinase kinase 2 (Homo sapiens, UniProt Q96RR4).
In test [2] the target is Epithelial discoidin domain-containing receptor 1 (Homo sapiens, UniProt Q08345).
Test [3] concerns the target Tyrosine-protein kinase JAK1 (Homo sapiens, UniProt P23458).
The target of test [4] is T1, Mitogen-activated protein kinase 15 (Homo sapiens, UniProt Q8TD08).
T1 sequence (Q8TD08 whole entry): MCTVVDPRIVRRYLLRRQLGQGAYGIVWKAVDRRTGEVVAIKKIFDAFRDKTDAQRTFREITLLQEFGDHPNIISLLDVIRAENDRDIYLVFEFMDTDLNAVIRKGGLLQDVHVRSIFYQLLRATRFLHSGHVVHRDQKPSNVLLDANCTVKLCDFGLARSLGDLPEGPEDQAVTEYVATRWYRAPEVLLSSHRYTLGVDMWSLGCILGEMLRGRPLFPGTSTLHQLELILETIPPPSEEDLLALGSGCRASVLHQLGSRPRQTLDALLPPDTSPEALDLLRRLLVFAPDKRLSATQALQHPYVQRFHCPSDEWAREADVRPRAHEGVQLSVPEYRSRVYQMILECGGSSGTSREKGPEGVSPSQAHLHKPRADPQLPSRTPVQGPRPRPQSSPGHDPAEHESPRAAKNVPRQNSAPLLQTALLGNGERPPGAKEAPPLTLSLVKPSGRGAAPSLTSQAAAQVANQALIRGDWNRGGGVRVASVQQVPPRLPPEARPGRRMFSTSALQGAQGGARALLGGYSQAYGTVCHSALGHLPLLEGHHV

A further test has as its target Activin receptor type-2B (Homo sapiens, UniProt Q13705).
The target of test [5] is T2, MAP/microtubule affinity-regulating kinase 4 (Homo sapiens, UniProt Q96L34).
T2 sequence (Q96L34 whole entry): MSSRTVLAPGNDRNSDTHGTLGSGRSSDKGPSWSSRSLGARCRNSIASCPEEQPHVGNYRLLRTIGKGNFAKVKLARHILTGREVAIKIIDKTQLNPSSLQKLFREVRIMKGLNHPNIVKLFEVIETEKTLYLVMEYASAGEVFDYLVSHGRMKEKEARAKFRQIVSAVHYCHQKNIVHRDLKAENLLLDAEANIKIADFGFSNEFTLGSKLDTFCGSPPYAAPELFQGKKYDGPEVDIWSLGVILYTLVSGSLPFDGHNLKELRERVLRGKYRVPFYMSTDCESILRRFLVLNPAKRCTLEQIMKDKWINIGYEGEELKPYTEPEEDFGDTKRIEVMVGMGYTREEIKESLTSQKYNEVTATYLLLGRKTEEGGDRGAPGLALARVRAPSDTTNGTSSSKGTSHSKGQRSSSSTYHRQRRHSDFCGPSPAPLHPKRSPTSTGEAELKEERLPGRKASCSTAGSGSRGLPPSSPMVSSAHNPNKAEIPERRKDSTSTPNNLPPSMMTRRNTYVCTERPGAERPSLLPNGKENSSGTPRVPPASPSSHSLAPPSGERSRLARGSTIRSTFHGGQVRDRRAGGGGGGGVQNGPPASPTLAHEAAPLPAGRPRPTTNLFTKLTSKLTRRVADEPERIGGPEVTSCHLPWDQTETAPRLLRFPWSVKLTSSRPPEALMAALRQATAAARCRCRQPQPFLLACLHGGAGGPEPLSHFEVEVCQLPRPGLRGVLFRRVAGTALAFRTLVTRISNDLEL

The target in the next test is Ephrin type-A receptor 7 (Homo sapiens, UniProt Q15375).
Sequence of Ephrin type-A receptor 7 (Q15375 whole entry): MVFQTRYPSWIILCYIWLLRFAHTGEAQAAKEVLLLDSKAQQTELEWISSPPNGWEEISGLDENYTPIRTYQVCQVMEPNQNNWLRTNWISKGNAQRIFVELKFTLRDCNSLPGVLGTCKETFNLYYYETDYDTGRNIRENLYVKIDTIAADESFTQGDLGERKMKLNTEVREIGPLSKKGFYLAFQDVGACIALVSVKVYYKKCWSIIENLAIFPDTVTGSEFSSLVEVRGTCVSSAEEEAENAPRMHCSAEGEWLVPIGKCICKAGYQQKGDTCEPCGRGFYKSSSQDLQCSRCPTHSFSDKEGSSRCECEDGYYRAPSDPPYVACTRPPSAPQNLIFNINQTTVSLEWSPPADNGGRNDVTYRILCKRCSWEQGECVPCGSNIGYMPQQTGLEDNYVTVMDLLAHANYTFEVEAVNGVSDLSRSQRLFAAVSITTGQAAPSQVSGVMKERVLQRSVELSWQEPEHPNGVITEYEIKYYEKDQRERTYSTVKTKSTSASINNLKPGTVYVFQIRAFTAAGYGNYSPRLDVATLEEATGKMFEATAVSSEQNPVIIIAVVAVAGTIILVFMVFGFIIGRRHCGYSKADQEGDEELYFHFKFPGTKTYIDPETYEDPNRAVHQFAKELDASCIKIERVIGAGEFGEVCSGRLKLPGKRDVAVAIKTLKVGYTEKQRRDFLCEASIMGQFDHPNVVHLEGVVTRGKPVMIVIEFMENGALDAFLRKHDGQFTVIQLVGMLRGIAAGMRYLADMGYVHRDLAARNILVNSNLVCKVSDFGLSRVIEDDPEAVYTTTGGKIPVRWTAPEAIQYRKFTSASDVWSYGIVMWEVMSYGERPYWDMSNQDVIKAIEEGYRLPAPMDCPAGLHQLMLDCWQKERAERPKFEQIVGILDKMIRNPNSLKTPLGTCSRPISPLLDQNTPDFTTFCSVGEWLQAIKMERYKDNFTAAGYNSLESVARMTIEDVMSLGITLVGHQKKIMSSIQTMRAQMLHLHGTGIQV
The target of test [6] is Ribosomal protein S6 kinase alpha-5 (Homo sapiens, UniProt O75582).
Sequence of Ribosomal protein S6 kinase alpha-5 (O75582 whole entry): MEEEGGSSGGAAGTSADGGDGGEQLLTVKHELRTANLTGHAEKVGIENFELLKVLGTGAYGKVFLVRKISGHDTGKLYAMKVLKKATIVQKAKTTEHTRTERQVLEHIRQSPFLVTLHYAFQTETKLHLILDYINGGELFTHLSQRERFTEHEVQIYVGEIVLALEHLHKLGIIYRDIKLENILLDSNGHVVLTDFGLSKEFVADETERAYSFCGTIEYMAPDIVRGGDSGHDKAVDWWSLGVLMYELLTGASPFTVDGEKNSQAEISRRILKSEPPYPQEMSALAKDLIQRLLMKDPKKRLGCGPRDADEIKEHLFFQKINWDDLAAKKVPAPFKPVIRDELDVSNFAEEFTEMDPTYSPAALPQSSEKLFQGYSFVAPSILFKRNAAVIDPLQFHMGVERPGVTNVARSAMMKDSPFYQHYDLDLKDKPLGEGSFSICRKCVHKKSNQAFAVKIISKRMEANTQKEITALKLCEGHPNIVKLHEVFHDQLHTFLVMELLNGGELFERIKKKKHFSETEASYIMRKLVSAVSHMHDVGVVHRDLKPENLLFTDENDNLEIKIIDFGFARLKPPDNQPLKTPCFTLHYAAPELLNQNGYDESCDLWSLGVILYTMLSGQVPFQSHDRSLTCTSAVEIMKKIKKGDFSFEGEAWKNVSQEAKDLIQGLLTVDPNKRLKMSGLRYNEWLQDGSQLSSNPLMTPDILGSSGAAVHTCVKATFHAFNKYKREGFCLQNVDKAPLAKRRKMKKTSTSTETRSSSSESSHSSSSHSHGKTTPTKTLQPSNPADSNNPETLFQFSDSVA
The target in test [7] is T3, Phenylalanine--tRNA ligase beta subunit (Homo sapiens, UniProt Q9NSD9).
T3 sequence (Q9NSD9 whole entry): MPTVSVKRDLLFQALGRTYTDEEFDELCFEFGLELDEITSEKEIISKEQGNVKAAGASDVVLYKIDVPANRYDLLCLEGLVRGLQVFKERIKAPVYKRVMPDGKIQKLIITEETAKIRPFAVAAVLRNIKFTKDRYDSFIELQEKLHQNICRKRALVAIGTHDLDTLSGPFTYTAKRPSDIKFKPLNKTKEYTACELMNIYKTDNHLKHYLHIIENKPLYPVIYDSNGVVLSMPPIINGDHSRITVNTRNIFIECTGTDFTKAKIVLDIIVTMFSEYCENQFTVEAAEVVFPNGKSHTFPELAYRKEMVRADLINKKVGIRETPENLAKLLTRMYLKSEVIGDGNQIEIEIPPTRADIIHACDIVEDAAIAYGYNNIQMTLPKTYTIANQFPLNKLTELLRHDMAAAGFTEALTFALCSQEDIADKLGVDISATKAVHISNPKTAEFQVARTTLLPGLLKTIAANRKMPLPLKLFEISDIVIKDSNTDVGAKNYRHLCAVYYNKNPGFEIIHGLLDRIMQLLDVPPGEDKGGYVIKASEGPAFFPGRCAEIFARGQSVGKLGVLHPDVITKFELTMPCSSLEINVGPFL

Test [8] deals with Cyclin-dependent kinase 1 (Homo sapiens, UniProt P06493).
Sequence of Cyclin-dependent kinase 1 (P06493 whole entry): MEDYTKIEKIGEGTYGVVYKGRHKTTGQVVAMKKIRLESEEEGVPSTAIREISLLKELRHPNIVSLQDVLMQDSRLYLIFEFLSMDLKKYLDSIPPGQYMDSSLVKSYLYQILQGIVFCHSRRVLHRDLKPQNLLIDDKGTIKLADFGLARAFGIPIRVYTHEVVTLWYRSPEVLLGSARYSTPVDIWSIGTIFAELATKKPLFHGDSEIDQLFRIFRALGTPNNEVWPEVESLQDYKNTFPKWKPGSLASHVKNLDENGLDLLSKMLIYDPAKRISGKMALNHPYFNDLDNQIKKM
In test [9] the target is Tyrosine-protein kinase HCK (Homo sapiens, UniProt P08631).
Sequence of Tyrosine-protein kinase HCK (P08631 whole entry): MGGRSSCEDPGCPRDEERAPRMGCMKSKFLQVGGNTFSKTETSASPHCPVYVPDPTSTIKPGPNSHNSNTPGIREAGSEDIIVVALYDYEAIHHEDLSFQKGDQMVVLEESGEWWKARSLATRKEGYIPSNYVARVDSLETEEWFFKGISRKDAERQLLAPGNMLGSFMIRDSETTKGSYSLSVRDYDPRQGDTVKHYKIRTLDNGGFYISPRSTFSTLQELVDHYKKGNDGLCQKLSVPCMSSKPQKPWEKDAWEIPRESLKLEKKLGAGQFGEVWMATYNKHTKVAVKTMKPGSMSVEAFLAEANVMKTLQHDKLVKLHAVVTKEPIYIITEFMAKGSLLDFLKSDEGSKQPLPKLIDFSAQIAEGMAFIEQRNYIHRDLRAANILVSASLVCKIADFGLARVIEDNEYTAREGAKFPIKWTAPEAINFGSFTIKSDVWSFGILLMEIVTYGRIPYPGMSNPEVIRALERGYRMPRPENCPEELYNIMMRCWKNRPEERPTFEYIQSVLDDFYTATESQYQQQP
Test [10] addresses Serine/threonine-protein kinase pim-1 (Homo sapiens, UniProt P11309).

Calls of active or inactive are those of the source. Cut-off read from the data, not from the text of the source, for most assays here: actives have a measured Kd and inactives only a lower limit.
Note: in the data inactive means no Kd found up to 30 µM.

Sequence of Tyrosine-protein kinase JAK1 (P23458 whole entry): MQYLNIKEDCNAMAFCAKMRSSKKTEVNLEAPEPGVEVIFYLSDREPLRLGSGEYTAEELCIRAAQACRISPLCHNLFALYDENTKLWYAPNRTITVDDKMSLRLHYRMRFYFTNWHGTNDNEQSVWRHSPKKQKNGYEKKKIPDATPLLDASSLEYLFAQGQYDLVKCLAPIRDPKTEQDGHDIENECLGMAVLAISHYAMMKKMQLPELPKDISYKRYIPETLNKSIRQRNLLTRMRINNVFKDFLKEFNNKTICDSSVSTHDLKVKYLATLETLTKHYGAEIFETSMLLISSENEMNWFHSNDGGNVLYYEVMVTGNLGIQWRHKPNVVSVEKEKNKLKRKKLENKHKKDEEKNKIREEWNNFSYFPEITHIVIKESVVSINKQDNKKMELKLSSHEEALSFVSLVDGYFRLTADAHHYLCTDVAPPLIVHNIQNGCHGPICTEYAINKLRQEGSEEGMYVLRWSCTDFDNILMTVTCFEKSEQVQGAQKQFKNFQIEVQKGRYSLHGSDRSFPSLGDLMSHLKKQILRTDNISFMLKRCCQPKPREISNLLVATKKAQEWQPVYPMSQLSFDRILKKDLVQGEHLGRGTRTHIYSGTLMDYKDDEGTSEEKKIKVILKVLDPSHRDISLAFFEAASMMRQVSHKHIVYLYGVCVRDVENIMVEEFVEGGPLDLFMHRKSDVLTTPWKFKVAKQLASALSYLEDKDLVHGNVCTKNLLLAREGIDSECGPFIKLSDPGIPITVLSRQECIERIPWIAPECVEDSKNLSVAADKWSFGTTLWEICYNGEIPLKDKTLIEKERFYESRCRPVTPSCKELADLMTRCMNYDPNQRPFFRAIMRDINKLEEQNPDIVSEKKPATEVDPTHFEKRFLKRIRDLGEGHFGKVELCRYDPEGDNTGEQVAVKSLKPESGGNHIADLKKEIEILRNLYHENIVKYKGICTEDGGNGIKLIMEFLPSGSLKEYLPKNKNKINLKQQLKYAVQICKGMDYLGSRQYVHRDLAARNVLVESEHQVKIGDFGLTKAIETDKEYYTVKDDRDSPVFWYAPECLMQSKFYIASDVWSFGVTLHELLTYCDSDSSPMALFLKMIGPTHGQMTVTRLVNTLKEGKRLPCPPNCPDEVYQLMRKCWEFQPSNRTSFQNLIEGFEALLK
Sequence of Serine/threonine-protein kinase pim-1 (P11309 whole entry): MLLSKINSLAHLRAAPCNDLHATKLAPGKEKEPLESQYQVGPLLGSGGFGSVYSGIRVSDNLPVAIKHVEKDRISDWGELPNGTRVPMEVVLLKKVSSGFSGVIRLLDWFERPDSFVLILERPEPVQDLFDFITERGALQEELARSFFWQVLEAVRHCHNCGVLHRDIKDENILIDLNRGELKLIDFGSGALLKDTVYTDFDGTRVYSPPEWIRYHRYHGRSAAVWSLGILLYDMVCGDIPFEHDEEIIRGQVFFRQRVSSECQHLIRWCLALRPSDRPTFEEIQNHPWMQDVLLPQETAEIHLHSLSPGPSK
Sequence of Epithelial discoidin domain-containing receptor 1 (Q08345 whole entry, the tested form may be a part): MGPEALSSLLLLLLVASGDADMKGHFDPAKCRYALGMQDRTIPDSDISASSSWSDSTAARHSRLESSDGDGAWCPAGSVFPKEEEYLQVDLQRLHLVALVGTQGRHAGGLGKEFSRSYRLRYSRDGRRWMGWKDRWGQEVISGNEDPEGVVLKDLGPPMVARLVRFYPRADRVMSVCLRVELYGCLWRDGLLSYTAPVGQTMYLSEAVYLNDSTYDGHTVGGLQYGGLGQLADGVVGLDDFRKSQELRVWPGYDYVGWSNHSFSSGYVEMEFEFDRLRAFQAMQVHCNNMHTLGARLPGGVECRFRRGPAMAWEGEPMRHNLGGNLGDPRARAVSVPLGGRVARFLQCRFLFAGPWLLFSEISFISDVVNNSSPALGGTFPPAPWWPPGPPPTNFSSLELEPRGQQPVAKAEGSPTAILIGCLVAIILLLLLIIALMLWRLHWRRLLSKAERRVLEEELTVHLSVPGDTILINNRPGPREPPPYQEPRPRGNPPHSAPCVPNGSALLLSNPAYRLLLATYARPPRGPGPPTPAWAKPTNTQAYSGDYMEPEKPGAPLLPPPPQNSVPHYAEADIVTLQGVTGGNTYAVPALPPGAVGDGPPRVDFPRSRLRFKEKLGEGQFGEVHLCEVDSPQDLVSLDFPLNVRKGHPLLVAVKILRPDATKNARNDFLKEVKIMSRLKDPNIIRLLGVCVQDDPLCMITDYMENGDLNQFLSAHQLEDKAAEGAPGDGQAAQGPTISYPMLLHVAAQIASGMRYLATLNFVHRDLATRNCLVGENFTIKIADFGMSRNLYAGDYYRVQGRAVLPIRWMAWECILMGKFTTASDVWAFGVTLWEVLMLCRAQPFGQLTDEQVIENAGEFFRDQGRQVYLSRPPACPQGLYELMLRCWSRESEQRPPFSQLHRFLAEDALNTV

Regarding `COc1cc(Nc2ncc3c(n2)-c2ccc(Cl)cc2C(c2c(F)cccc2OC)=NC3)ccc1C(=O)O` [ALISERTIB], the Kd (in test [1]; in test [2]; in test [3]; in test [4]; on Activin receptor type-2B; in [5]) was > 30 µM (inactive) throughout. The Kd (at Ephrin type-A receptor 7; in test [6]; in test [7]) was > 30 µM (inactive) throughout.

On to `Cc1cc(C(=O)NOCCO)c(Nc2ccc(I)cc2F)n(C)c1=O` [AZD-8330], for which the Kd (in test [1]; in [2]; in test [3]; in test [4]; at Activin receptor type-2B; in test [5]) was > 30 µM (inactive) each time. Also, the Kd in [6], in test [8], in [7], in test [9] and in test [10] was > 30 µM (inactive) throughout.

With `C#Cc1cccc(Nc2ncnc3cc(OC)c(OCCCCCCC(=O)NO)cc23)c1` [CUDC-101], the Kd (in test [1]; in test [2]; in [3]; in test [4]; on Activin receptor type-2B; in test [5]) was > 30 µM (inactive) in each case. Also, the Kd in test [6], in [8], in test [7], in [9] and in test [10] was > 30 µM (inactive) in each case.

Consider `Cc1nc2cc(-n3ncc(C(=O)c4cc5ccccc5[nH]4)c3N)ccc2[nH]1` [FGFR INHIBITOR DEBIO 1347], for which the Kd (in [1]; in test [2]; in [3]; in test [4]; on Activin receptor type-2B; in test [5]) was > 30 µM (inactive) each time. Further, the Kd in test [6], in [8], in test [7], in test [9] and in test [10] was > 30 µM (inactive) in each case.

Take `NC(=O)c1c(OCc2c(F)cc(Br)cc2F)nsc1NC(=O)NCCCCN1CCCC1` [OSI-632]: the Kd in test [1] is > 30 µM (inactive); in test [2] it was 0.067 µM (active); in test [3], > 30 µM (inactive); in test [4] it was > 30 µM (inactive); on Activin receptor type-2B, > 30 µM (inactive); in test [5], > 30 µM (inactive). For the same molecule, the Kd (on Ephrin type-A receptor 7; in test [7]; in test [9]) was > 30 µM (inactive) in each case.

For the molecule `CC(=O)NCC(=O)N1[C@@H]2CC[C@H]1c1ccc(Nc3ncc(C(F)(F)F)c(NC4CCC4)n3)cc12` [PF-03814735], the Kd in test [1] is 2.19 µM (active); in test [2], > 30 µM (inactive); in [4] it was > 30 µM (inactive); on Activin receptor type-2B it was > 30 µM (inactive); in test [5], 0.009 µM (active); on Ephrin type-A receptor 7, > 30 µM (inactive). For the same molecule, the Kd in test [6], in test [7] and in test [9] was > 30 µM (inactive) throughout.

On to `CNC(=O)c1cc(Oc2ccc(NC(=O)Nc3cc(C(C)(C)C)nn3-c3ccc4ncccc4c3)c(F)c2)ccn1` [REBASTINIB], for which the Kd was > 30 µM (inactive) in test [1]; 0.272 µM (active) in test [2]; > 30 µM (inactive) in [3]; 0.276 µM (active) in [4]; > 30 µM (inactive) on Activin receptor type-2B; > 30 µM (inactive) in [5]. Moreover, the Kd is 1.07 µM (active) in [8], > 30 µM (inactive) in test [7] and > 30 µM (inactive) in [10].

For `CO[C@H]1C[C@@H]2CC[C@@H](C)[C@@](O)(O2)C(=O)C(=O)N2CCCC[C@H]2C(=O)O[C@H]([C@H](C)C[C@@H]2CC[C@@H](OP(C)(C)=O)[C@H](OC)C2)CC(=O)[C@H](C)/C=C(\C)[C@@H](O)[C@@H](OC)C(=O)[C@H](C)C[C@H](C)/C=C/C=C/C=C/1C` [RIDAFOROLIMUS], the Kd (in test [1]; in test [2]; in test [3]; in test [4]; at Activin receptor type-2B; in [5]) was > 30 µM (inactive) in each case. Besides, the Kd in test [6], in [8], in [7], in test [9] and in test [10] was > 30 µM (inactive) each time.

As for `CO[C@H]1C[C@@H]2CC[C@@H](C)[C@@](O)(O2)C(=O)C(=O)N2CCCC[C@H]2C(=O)O[C@H]([C@H](C)C[C@@H]2CC[C@@H](O)[C@H](OC)C2)CC(=O)[C@H](C)/C=C(\C)[C@@H](O)[C@@H](OC)C(=O)[C@H](C)C[C@H](C)/C=C/C=C/C=C/1C` [SIROLIMUS], the Kd (in test [1]; in test [2]; in test [3]; in [4]; on Activin receptor type-2B; in test [5]) was > 30 µM (inactive) each time. Further, the Kd in [6], in test [8], in test [7], in test [9] and in [10] was > 30 µM (inactive) throughout.

In the case of `O=C1NC(=O)[C@@H](c2cn3c4c(cccc24)CCC3)[C@@H]1c1c[nH]c2ccccc12` [TIVANTINIB], the Kd (in test [1]; in [2]; in test [3]; in [4]; on Activin receptor type-2B; in test [5]) was > 30 µM (inactive) throughout. Moreover, the Kd in test [6], in [8], in test [7], in test [9] and in [10] was > 30 µM (inactive) throughout.

`CN1C/C=C/CCOc2cccc(c2)-c2ccnc(n2)Nc2cccc(c2)C1` [ZOTIRACICLIB]: the Kd in test [1] is > 30 µM (inactive); in test [2], > 30 µM (inactive); in test [3], 2.01 µM (active); in test [4], 1.07 µM (active); on Activin receptor type-2B, > 30 µM (inactive); on Ephrin type-A receptor 7, > 30 µM (inactive). Besides, the Kd in test [6], in test [8], in test [7], in test [9] and in test [10] was > 30 µM (inactive) each time.
